≈ marks a conversion by molar mass, not a printed value.
Legend:
[1] = tested on: E. coli ATCC 25922; experiment: MIC, E. coli ATCC 25922; type: cell-based; conditions: Alamar Blue read after overnight incubation at 35° C.; for MIC Ec: E. coli; for MIC: Escherichia coli, ATCC25922, E. coli, read-out: MIC Ec
[2] = tested on: S. aureus ATCC 13709; experiment: MIC, S. aureus ATCC 13709; type: cell-based; conditions: Alamar Blue read after overnight incubation at 35° C.; for MIC Sa: S. aureus; for MIC: Staphylococcus aureus, ATCC13709, S. aureus, read-out: MIC Sa

| MIC Ec [1] | MIC Sa [2] | MIC [1] | MIC [2] | SMILES |
| --- | --- | --- | --- | --- |
| 4 µg/mL (≈ 8.45 µM) | ≤0.5 µg/mL | – | – | CNc1cc(F)cc2c1[nH]c1nc(Oc3ccc4c(c3)C(=O)NC4)nc(N3CC(N)C4(CC4)C3)c12 (stereo not shown) [Compound 4.265] |
| 4 µg/mL (≈ 8.45 µM) | ≤0.5 µg/mL | – | – | CNc1cc(F)cc2c1[nH]c1nc(Oc3ccc4c(c3)C(=O)NC4)nc(N3CC4CCNC4C3)c12 (stereo not shown) [Compound 4.269] |
| 2 µg/mL (≈ 4.22 µM) | ≤0.5 µg/mL | – | – | CNc1cc(F)cc2c1[nH]c1nc(Oc3ccc4c(c3)C(=O)NC4)nc(N3CC4(CCC4N)C3)c12 (stereo not shown) [Compound 4.270] |
| ≤0.5 µg/mL | ≤0.5 µg/mL | – | – | CNc1cc(F)cc2c1[nH]c1nc(Oc3cncc(Cl)c3)nc(N3CC4C(N)C4C3)c12 (stereo not shown) [Compound 4.272] |
| 2 µg/mL (≈ 4.41 µM) | ≤0.5 µg/mL | – | – | CNc1cc(F)cc2c1[nH]c1nc(Oc3cncc(Cl)c3)nc(N3CC(N)C4(CC4)C3)c12 (stereo not shown) [Compound 4.273] |
| ≤0.5 µg/mL | ≤0.5 µg/mL | – | – | CNc1cc(F)cc2c1[nH]c1nc(Oc3cncc(Cl)c3)nc(N3CC(N)C3)c12 [Compound 4.277] |
| ≤0.5 µg/mL | ≤0.5 µg/mL | – | – | CNc1cc(F)cc2c1[nH]c1nc(Oc3cnc(C4CCC4)nc3)nc(N3CC4C(N)C4C3)c12 (stereo not shown) [Compound 4.286] |
| ≤0.5 µg/mL | ≤0.5 µg/mL | – | – | CNc1cc(F)cc2c1[nH]c1nc(Oc3cnc(C4CCC4)nc3)nc(N3CC(N)C4(CC4)C3)c12 (stereo not shown) [Compound 4.287] |
| >16 µg/mL | 4 µg/mL (≈ 8.24 µM) | – | – | CNc1cc(F)cc2c1[nH]c1nc(Oc3ccc4c(N)nc(C)nc4c3)nc(N3CC4C(N)C4C3)c12 (stereo not shown) [Compound 4.288] |
| ≤0.5 µg/mL | ≤0.5 µg/mL | – | – | CNc1cc(F)cc2c1[nH]c1nc(Oc3cnc4ccoc4c3)nc(N3CC4CC(N)C4C3)c12 (stereo not shown) [Compound 4.290] |
| ≤0.5 µg/mL | ≤0.5 µg/mL | – | – | CNc1cc(F)cc2c1[nH]c1nc(Oc3cnc4ccoc4c3)nc(N3CC4C(N)C4C3)c12 (stereo not shown) [Compound 4.291] |
| 1 µg/mL (≈ 2.11 µM) | ≤0.5 µg/mL | – | – | CNc1cc(F)cc2c1[nH]c1nc(Oc3cnc4ccoc4c3)nc(N3CC4CCC(N)C4C3)c12 (stereo not shown) [Compound 4.293] |
| 1 µg/mL (≈ 2.09 µM) | ≤0.5 µg/mL | – | – | CNc1cc(F)cc2c1[nH]c1nc(Oc3cnc4c(c3)OCCO4)nc(N3CC4CC(N)C4C3)c12 (stereo not shown) [Compound 4.294] |
| ≤0.5 µg/mL | ≤0.5 µg/mL | – | – | CNc1cc(F)cc2c1[nH]c1nc(Oc3cnc(N4CCC4)nc3)nc(N3CC4C(N)C4C3)c12 (stereo not shown) [Compound 4.296] |
| 2 µg/mL (≈ 4.19 µM) | ≤0.5 µg/mL | – | – | CNc1cc(F)cc2c1[nH]c1nc(Oc3cnc(N4CC(O)C4)nc3)nc(N3CC4C(N)C4C3)c12 (stereo not shown) [Compound 4.298] |
| 1 µg/mL (≈ 2.11 µM) | ≤0.5 µg/mL | – | – | CNc1cc(F)cc2c1[nH]c1nc(Oc3ccc4c(c3)C(=O)NCC4)nc(N3CC4C(N)C4C3)c12 (stereo not shown) [Compound 4.301] |
| ≤0.5 µg/mL | ≤0.5 µg/mL | – | – | CNc1cc(F)cc2c1[nH]c1nc(Oc3cncc(C)c3)nc(N3CC4CC(N)C4C3)c12 (stereo not shown) [Compound 4.303] |
| ≤0.5 µg/mL | ≤0.5 µg/mL | – | – | CNc1cc(F)cc2c1[nH]c1nc(Oc3ccc(C(C)=O)nc3)nc(N3CC4CCNC4C3)c12 (stereo not shown) [Compound 4.309] |
| >16 µg/mL | 8 µg/mL (≈ 17.4 µM) | – | – | CNc1cc(F)cc2c1[nH]c1nc(Oc3cnc4[nH]cnc4c3)nc(N3CC4CC(N)C4C3)c12 (stereo not shown) [Compound 4.310] |
| >16 µg/mL | 4 µg/mL (≈ 8.98 µM) | – | – | CNc1cc(F)cc2c1[nH]c1nc(Oc3cnc4[nH]cnc4c3)nc(N3CC4C(N)C4C3)c12 (stereo not shown) [Compound 4.311] |
| >16 µg/mL | 16 µg/mL (≈ 34.8 µM) | – | – | CNc1cc(F)cc2c1[nH]c1nc(Oc3cnc4[nH]cnc4c3)nc(N3CC4CCNC4C3)c12 (stereo not shown) [Compound 4.312] |
| ≤0.5 µg/mL | ≤0.5 µg/mL | – | – | CNc1cc(F)cc2c1[nH]c1nc(Oc3cnc(C(C)(C)C)nc3)nc(N3CC4C(N)C4C3)c12 (stereo not shown) [Compound 4.314] |
| 1 µg/mL (≈ 2.1 µM) | ≤0.5 µg/mL | – | – | CNc1cc(F)cc2c1[nH]c1nc(Oc3cnc(C(C)(C)C)nc3)nc(N3CC4CC(N)C4C3)c12 (stereo not shown) [Compound 4.316] |
| 1 µg/mL (≈ 2.04 µM) | ≤0.5 µg/mL | – | – | CNc1cc(F)cc2c1[nH]c1nc(Oc3ccc4ncsc4c3)nc(N3CC4CCC(N)C4C3)c12 (stereo not shown) [Compound 4.320] |
| 1 µg/mL (≈ 1.99 µM) | ≤0.5 µg/mL | – | – | CNc1cc(F)cc2c1[nH]c1nc(Oc3ccc4sc(C)nc4c3)nc(N3CC4CC(N)CC4C3)c12 (stereo not shown) [Compound 4.321] |
| ≤0.5 µg/mL | ≤0.5 µg/mL | – | – | CNc1cc(F)cc2c1[nH]c1nc(Oc3ccc4sc(C)nc4c3)nc(N3CC4CCC(N)C4C3)c12 (stereo not shown) [Compound 4.322] |

| MIC Ec [1] | MIC Sa [2] | MIC [1] | MIC [2] | SMILES |
| --- | --- | --- | --- | --- |
| 1 µg/mL (≈ 2.18 µM) | ≤0.5 µg/mL | – | – | CNc1cc(F)cc2c1[nH]c1nc(Oc3cnc(C#N)c(C)c3)nc(N3CC4CC(N)C4C3)c12 (stereo not shown) [Compound 4.323] |
| ≤0.5 µg/mL | ≤0.5 µg/mL | – | – | CNc1cc(F)cc2c1[nH]c1nc(Oc3cnc(C#N)c(C)c3)nc(N3CC(N)C4(CC4)C3)c12 (stereo not shown) [Compound 4.324] |
| ≤0.5 µg/mL | ≤0.5 µg/mL | – | – | CNc1cc(F)cc2c1[nH]c1nc(Oc3cnc(C#N)c(C)c3)nc(N3CC4CC(N)C4C3)c12 (stereo not shown) [Compound 4.325] |
| ≤0.5 µg/mL | ≤0.5 µg/mL | – | – | CNc1cc(F)cc2c1[nH]c1nc(Oc3cnc(C#N)c(C)c3)nc(N3CC4(CCC4N)C3)c12 (stereo not shown) [Compound 4.326] |
| 1 µg/mL (≈ 2.12 µM) | ≤0.5 µg/mL | – | – | CNc1cc(F)cc2c1[nH]c1nc(Oc3cnc4c(ccn4C)c3)nc(N3CC4CC(N)C4C3)c12 (stereo not shown) [Compound 4.328] |
| ≤0.5 µg/mL | ≤0.5 µg/mL | – | – | CNc1cc(F)cc2c1[nH]c1nc(Oc3ccc(C#N)nc3)nc(N3CC(N)C4(CC4)C3)c12 (stereo not shown) [Compound 4.329] |
| ≤0.5 µg/mL | ≤0.5 µg/mL | – | – | CNc1cc(F)cc2c1[nH]c1nc(Oc3ccc(C#N)nc3)nc(N3CC4CCNC4C3)c12 (stereo not shown) [Compound 4.330] |
| ≤0.5 µg/mL | ≤0.5 µg/mL | – | – | CNc1cc(F)cc2c1[nH]c1nc(Oc3ccc(C#N)nc3)nc(N3CCC(N)C3)c12 (stereo not shown) [Compound 4.331] |
| ≤0.5 µg/mL | ≤0.5 µg/mL | – | – | CNc1cc(F)cc2c1[nH]c1nc(Oc3ccc(C#N)nc3)nc(N3CC4CC(N)C4C3)c12 (stereo not shown) [Compound 4.332] |
| ≤0.5 µg/mL | ≤0.5 µg/mL | – | – | CNc1cc(F)cc2c1[nH]c1nc(Oc3ccc(C#N)nc3)nc(N3CC4(CCC4N)C3)c12 (stereo not shown) [Compound 4.333] |
| 4 µg/mL (≈ 7.93 µM) | ≤0.5 µg/mL | – | – | CNc1cc(F)cc2c1[nH]c1nc(Oc3ccc4sc(N)nc4c3)nc(N3CC4CCC(N)C4C3)c12 (stereo not shown) [Compound 4.335] |
| 1 µg/mL (≈ 2.05 µM) | ≤0.5 µg/mL | – | – | CNc1cc(F)cc2c1[nH]c1nc(Oc3ccc4oc(C)nc4c3)nc(N3CC4CCC(N)C4C3)c12 (stereo not shown) [Compound 4.336] |
| 4 µg/mL (≈ 8.22 µM) | ≤0.5 µg/mL | – | – | CNc1cc(F)cc2c1[nH]c1nc(Oc3cnc4ccc[n+]([O-])c4c3)nc(N3CC4(CCC4N)C3)c12 (stereo not shown) [Compound 4.342] |
| 2 µg/mL (≈ 4.09 µM) | ≤0.5 µg/mL | – | – | CNc1cc(F)cc2c1[nH]c1nc(Oc3cnc(N4CCCC4=O)nc3)nc(N3CC4C(N)C4C3)c12 (stereo not shown) [Compound 4.345] |
| 2 µg/mL (≈ 4.28 µM) | ≤0.5 µg/mL | – | – | CNc1cc(F)cc2c1[nH]c1nc(Oc3cncc([S+](C)[O-])c3)nc(N3CC4C(N)C4C3)c12 (stereo not shown) [Compound 4.351] |
| 16 µg/mL (≈ 29.3 µM) | 4 µg/mL (≈ 7.32 µM) | – | – | CNc1cc(F)cc2c1[nH]c1nc(Oc3cnc(CC(=O)N4CC[C@H](N)C4)nc3)nc(N3C[C@H](N)C4(CC4)C3)c12 [Compound 4.372] |
| 4 µg/mL (≈ 8.63 µM) | ≤0.5 µg/mL | – | – | CNc1cc(F)cc2c1[nH]c1nc(Oc3cnc(C(N)=O)nc3)nc(N3C[C@H](N)C4(CC4)C3)c12 [Compound 4.375] |
| >16 µg/mL | 1 µg/mL (≈ 2.36 µM) | – | – | CCNC(=O)c1cncc(Oc2nc(NCC)c3c(n2)[nH]c2c(NC)cc(F)cc23)c1 [Compound 4.384] |
| 2 µg/mL (≈ 4 µM) | ≤0.5 µg/mL | – | – | CNc1cc(F)cc2c1[nH]c1nc(Oc3cnc(-c4nccn4C)nc3)nc(N3C[C@H](N)C4(CC4)C3)c12 [Compound 4.399] |
| ≤0.5 µg/mL | ≤0.5 µg/mL | – | – | CCOC(=O)c1ncc(Oc2nc(N3C[C@H](N)C4(CC4)C3)c3c(n2)[nH]c2c(NC)cc(F)cc23)cn1 [Compound 4.402] |
| 1 µg/mL (≈ 1.92 µM) | ≤0.5 µg/mL | – | – | CNc1cc(F)cc2c1[nH]c1nc(Oc3cnc(NCC4CCCO4)nc3)nc(N3C[C@H](N)C4(CC4)C3)c12 (stereo partly shown) [Compound 4.406] |
| >16 µg/mL | 2 µg/mL (≈ 3.93 µM) | – | – | CNc1cc(F)cc2c1[nH]c1nc(Oc3cnc(NCC(O)CO)nc3)nc(N3C[C@H](N)C4(CC4)C3)c12 (stereo partly shown) [Compound 4.407] |
| 1 µg/mL (≈ 2.38 µM) | ≤0.5 µg/mL | – | – | CNc1cc(F)cc2c1[nH]c1nc(Oc3cnc(C)nc3)nc(-c3cncc(F)c3)c12 [Compound 4.417] |
| 1 µg/mL (≈ 2.56 µM) | ≤0.5 µg/mL | – | – | CNc1cc(F)cc2c1[nH]c1nc(Oc3cnc(C)nc3)nc(-c3cn[nH]c3)c12 [Compound 4.418] |
| – | – | > 16 µg/mL | > 16 µg/mL | Cc1ncc(Oc2nc(N3C[C@H](N)C4(CC4)C3)c3c(n2)[nH]c2c(N(C)C(=O)[C@H](C)N)cc(F)cc23)cn1 [Compound 4.423] |
| – | – | > 16 µg/mL | > 16 µg/mL | Cc1ncc(Oc2nc(N3C[C@H](N)C4(CC4)C3)c3c(n2)[nH]c2c(N(C)C(=O)[C@H](C)NC(=O)[C@H](C)N)cc(F)cc23)cn1 [Compound 4.425] |

| SMILES | MIC Ec [1] | MIC Sa [2] | MIC [1] | MIC [2] |
| --- | --- | --- | --- | --- |
| CNc1cc(F)cc2c1[nH]c1nc(Oc3cnc(CC(=O)N4CC(N(C)C)C4)nc3)nc(N3C[C@H](N)C4(CC4)C3)c12 [Compound 4.373] | 8 µg/mL (≈ 14.3 µM) | 2 µg/mL (≈ 3.57 µM) | – | – |

— US10865216B2, “Tricyclic Gyrase inhibitors” (MERCK SHARP & DOHME CORP., priority 2012, dated 2020)
